Article PMC8398393, “Synthesis and Biological Evaluation of Amidinourea Derivatives against Herpes Simplex Viruses” (Molecules, 2021)

Columns and labels:
[1] = Cytotoxicity assay (MTT) in Vero cells; assay type: cell-based; conditions: African green monkey, Vero cells (African green monkey kidney cells), compound concentration that produces 50% of cytotoxicity
Procedure: We then investigated whether the new amidinourea derivatives 5a–k could affect HSV-1 and HSV-2 replication. We first assessed cell cytotoxicity of the compounds in African green monkey kidney cells (Vero) to rule out the possibility that antiviral activity was related to the cytotoxic effects of the drug (Table 1). Vero cells were seeded at a density of 3 × 10^4/well in a 96-well culture plate. After 24 h, the cells were treated with different dilutions of drugs, or mock-treated using the same amount of vehicle solution (DMSO). Forty-eight hours after treatment, cell viability was determined using a standard 3-(4,5-dimethylthiazol-2-yl)-2,5-diphenyltetrazolium bromide (MTT) assay. The compounds were considered non-toxic only if they maintained at least 70% cell viability after 48 h of treatment.
To determine the cytotoxicity of amidinourea derivatives, Vero cells were seeded in a 96-well culture plate and exposed to increasing concentrations of either compounds or vehicle (DMSO) the following day. After 48 h of incubation, the number of viable cells was determined using the 3-(4,5-dimethylthiazol-2-yl)-2,5-diphenyltetrazolium bromide (MTT) (Sigma-Aldrich, Milan, Italy) assay, as previously described.
(§1) Data were presented as the mean value and standard error of the mean (SEM). Data were analyzed by means of GraphPad Prism 5 software (GraphPad Software, Inc., La Jolla, CA, USA). Statistical analysis was performed using one-way ANOVA with Bonferroni’s post-test; p < 0.05 was considered statistically significant. The IC50 e CC50 values were calculated using the online tool Quest Graph™ IC50 Calculator, AAT Bioquest, Inc., Sunnyvale, CA, USA, https://www.aatbio.com/tools/ic50-calculator (accessed on 4 May 2021).

HSV-2 = experiment: Virus yield reduction assay (plaque titration) HSV-2; assay type: cell-based, Herpes simplex virus type 2 (clinical isolate) in Vero cells; conditions: Vero cells, MOI 0.1, 48 h, 100 µM (50 µM for 5f and 5k)
Procedure: (§2) Vero cells were seeded at a density of 3 × 10^5/well in a 24-well culture plate. Twenty-four hours later, the cells were pre-treated with the different drugs for 2 h at 37 °C, and then infected in duplicate with HSV-1 or HSV-2 at an MOI of 0.1, in the presence of the compounds; following virus adsorption, the viral inoculum was removed and cultures were exposed to the compounds for 48 h. The extent of HSV-1 and HSV-2 replication was then assessed by titrating the infectivity of supernatants and cell-associated viruses using a standard plaque assay in Vero cells. Plaques were microscopically counted, and the mean plaque counts for each drug concentration were expressed as plaque-forming units per milliliter (PFU/mL) (Figure 3).
(§3) The African green monkey kidney cells (Vero, ATCC CCL-81™) were cultured in Dulbecco’s Modified Eagle’s Medium, supplemented with 10% heat inactivated fetal bovine serum (FBS), 2 mM glutamine, 1 mM sodium pyruvate, 100 U/mL penicillin and 100 µg/mL streptomycin sulfate (Sigma-Aldrich, Milan, Italy). Clinical isolates of HSV-1 and HSV-2 were a generous gift from Valeria Ghisetti, Amedeo di Savoia Hospital, Turin, Italy. They were propagated and titrated by plaque assay on Vero cells, as previously described.
(§4) Vero cells were seeded in 24-well plates and pre-treated, after 24 h, with different concentrations of the amidinourea derivatives or the vehicle control (DMSO) for 2 h at 37 °C. They were then infected with HSV at MOI of 0.1 PFU/cell in the presence of the compounds. Following virus adsorption (2 h at 37 °C), the viral inoculum was removed, and the cultures were maintained in a medium that contained the corresponding molecule for 48 h. The cells and supernatants were then harvested and disrupted using three freeze (liquid nitrogen)/thaw (37 °C) cycles. The extent of virus replication was subsequently assessed by titrating the infectivity of the supernatants of the cell suspensions in Vero cells, as previously described. Plaques were microscopically counted, and the mean plaque counts for each drug concentration were expressed as PFU/mL.
Figure 3 Antiviral activity of 5a–k against HSV-1 and HSV-2. Upper panel. Virus yield reduction assay. Vero cells were treated as described in the manuscript with the indicated compounds. The extent of (A) HSV-1 and (B) HSV-2 replication was then assessed by titrating the infectivity of supernatants and cell-associated viruses using a standard plaque assay in Vero cells. Plaques were microscopically counted, and the mean plaque counts for each molecule were expressed as PFU/mL. Mean ± SEM is shown (***, p < 0.001, one-way ANOVA followed by Bonferroni’s post-tests). Lower panel. […]

HSV-1 = experiment: Virus yield reduction assay (plaque titration) HSV-1; assay type: cell-based, Herpes simplex virus type 1 (clinical isolate) in Vero cells; conditions: for antiviral activity against HSV-1 (in words): virus yield reduction, Vero cells, MOI 0.1, 48 h, 100 µM (50 µM for 5f and 5k); for IC50: Human alphaherpesvirus 1, HSV-1, Vero cells, MOI 0.1, 2 h pre-treatment, 48 h, plaque assay, read-out: IC50 values (compound concentration required to inhibit 50% of viral infectivity)
Procedure: as §2, §3, §4, §1
Figure 3 Antiviral activity of 5a–k against HSV-1 and HSV-2. Upper panel. Virus yield reduction assay. Vero cells were treated as described in the manuscript with the indicated compounds. The extent of (A) HSV-1 and (B) HSV-2 replication was then assessed by titrating the infectivity of supernatants and cell-associated viruses using a standard plaque assay in Vero cells. Plaques were microscopically counted, and the mean plaque counts for each molecule were expressed as PFU/mL. Mean ± SEM is shown (***, p < 0.001, one-way ANOVA followed by Bonferroni’s post-tests). Lower panel. Representative light microscopy images of Vero cells infected with (A) HSV-1 or (B) HSV-2 and treated with the indicated compounds, as described for virus yield reduction assay. Original magnification: 20×.
Figure 4 (A) Vero cells were infected with HSV-1 and, where indicated, the cells were treated with increasing concentrations of the indicated compounds, before and during virus adsorption. These remained in the culture media throughout the experiment. The extent of HSV-1 replication was then assessed by titrating the infectivity of supernatants and cell-associated viruses—obtained from freeze (liquid nitrogen)/thaw (37 °C) cycles—and combined using a standard plaque assay. […]

ICP27 and gD (HSV-1) = experiment: Western blot of viral gene expression in HSV-1-infected Vero cells; assay type: cell-based, HSV-1 in Vero cells; conditions: MOI 0.3, various times post infection, immunoblotting
Procedure: (§5) Finally, to identify the phase of HSV replication program that is affected by amidinourea derivatives, the effects of 5i compound on viral gene expression was investigated in HSV-1 and HSV-2-infected cells. To this end, the total protein cell extracts were prepared from HSV-infected Vero cells treated with 5i, or vehicle control, for various lengths of time post infection. The expression patterns of ICP27, for HSV-1, ICP8, for HSV-2, gD, for HSV-1 and HSV-2, were then examined via immunoblotting with specific antibodies and were used as a reflection of the levels of immediate-early/early (ICP27, ICP8) and late (gD) viral products, respectively. […] However, the precise mechanism exploited by amidinourea derivatives to carry out their antiviral activity against HSV still deserves to be elucidated and is beyond the goals of the present communication.
(§6) After treatment, the cells were washed with phosphate-buffered saline (PBS), and cell lysis was carried out using radioimmunoprecipitation assay (RIPA) buffer to obtain total cell lysate. […]
(§7) Figure 5 Vero cells were mock infected or infected with HSV-1 (A) or HSV-2 (B) at an MOI of 0.3. Protein levels of ICP27 (HSV-1), ICP8 (HSV-2) and gD (HSV-1/2) were assessed at different times post infection (hpi) by Western blotting (upper panels). […]

ICP8 and gD (HSV-2) = experiment: Western blot of viral gene expression in HSV-2-infected Vero cells; assay type: cell-based, HSV-2 in Vero cells; conditions: MOI 0.3, various times post infection, immunoblotting
Procedure: as §5, §6, §7

Row | SMILES | CC50 at 48 h [1] | antiviral activity against HSV-2 (in words) (HSV-2) | antiviral activity against HSV-1 (in words) (HSV-1) | other results
1 | Cc1ccc(CNC(=O)NC(=N)Nc2ccc(Cl)cc2)cc1 [Compound 5c] | 184 µM |  |  | 
2 | N=C(N)/N=C(\N)N1CCOCC1 [moroxydine, reference compound] |  | does not show any antiviral activity | does not show any antiviral activity | 
3 | N=C(NCc1ccccc1)NC(=O)N1CCN(c2ccc(Cl)cc2)CC1 [Compound 5j] | 177 µM | very strong activity | very strong activity | IC50 (HSV-1): 72.1 µM
4 | N=C(NC(=O)NCCNc1ccccc1)Nc1ccc(Cl)cc1 [Compound 5e] | 142 µM |  |  | 
5 | N=C(NCc1ccccc1)NC(=O)N1CCN(c2ccc(F)cc2)CC1 [Compound 5h] | 389 µM |  |  | 
6 | N=C(NC(=O)N1CCOCC1)Nc1ccc(Cl)cc1 [Compound 5d] | 1560 µM |  | more pronounced against HSV-1 | 
7 | N=C(NC(=O)N1CCN(c2ccccc2)CC1)Nc1ccc(Cl)cc1 [Compound 5i] | 149 µM | very strong activity | very strong activity | expression of viral proteins ICP27 and gD (HSV-1) (ICP27 and gD (HSV-1)): overall decrease of viral proteins; expression of viral proteins ICP8 and gD (HSV-2) (ICP8 and gD (HSV-2)): overall decrease of viral proteins
8 | N=C(NC(=O)N1CCN(C23CC4CC(CC(C4)C2)C3)CC1)Nc1ccc(Cl)cc1 [Compound 5k] | 86.7 µM | very strong activity | very strong activity | IC50 (HSV-1): 18.5 µM
9 | N=C(NC(=O)N1CCNC(c2ccccc2)C1)Nc1ccc(Cl)cc1 (stereo not drawn) [Compound 5f] | 98.6 µM |  |  | 
10 | N=C(NCc1ccccc1)NC(=O)N1CCN(c2ccccc2)CC1 [Compound 5g] | 246 µM |  |  | 
11 | N=C(NC(=O)NCc1ccc(Cl)cc1)Nc1ccc(Cl)cc1 [Compound 5a] | 168 µM |  |  | 
12 | CC(NC(=O)NC(=N)Nc1ccc(Cl)cc1)c1ccccc1 (stereo not drawn) [Compound 5b] | 196 µM |  |  | 
